Tests used:
[1] = biological target: T1, D(2) dopamine receptor (Bos taurus, UniProt P20288); experiment: Inhibition of [3H]YM-09151-2 binding to bovine retina membrane Dopamine receptor D2, low affinity site
[2] = biological target: T1, D(2) dopamine receptor; experiment: Tested for binding affinity against Dopamine receptor D2 like from bovine striatum membranes by using [3H]YM-09151-2 radioligand
[3] = biological target: T1, D(2) dopamine receptor; experiment: Inhibition of [3H]YM-09151-2 binding to bovine retina membrane Dopamine receptor D2, high affinity site
[4] = biological target: D(1A) dopamine receptor (Bos taurus, UniProt Q95136); experiment: Binding affinity against Dopamine receptor D1 like from bovine retina membranes measured using [3H]SCH-23390 radioligand
D(1A) dopamine receptor, sequence (Q95136 whole entry): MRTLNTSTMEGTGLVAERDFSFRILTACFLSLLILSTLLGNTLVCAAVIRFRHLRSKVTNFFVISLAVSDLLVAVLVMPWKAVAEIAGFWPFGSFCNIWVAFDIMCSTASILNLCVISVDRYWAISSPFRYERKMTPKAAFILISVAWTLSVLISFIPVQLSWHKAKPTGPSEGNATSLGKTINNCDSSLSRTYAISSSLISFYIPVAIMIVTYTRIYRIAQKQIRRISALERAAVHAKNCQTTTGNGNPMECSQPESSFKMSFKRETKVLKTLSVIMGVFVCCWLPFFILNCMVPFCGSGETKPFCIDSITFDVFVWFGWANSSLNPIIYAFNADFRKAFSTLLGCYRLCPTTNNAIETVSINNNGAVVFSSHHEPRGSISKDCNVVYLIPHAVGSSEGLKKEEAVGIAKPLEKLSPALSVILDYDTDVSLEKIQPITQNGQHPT

T1 sequence (P20288 whole entry): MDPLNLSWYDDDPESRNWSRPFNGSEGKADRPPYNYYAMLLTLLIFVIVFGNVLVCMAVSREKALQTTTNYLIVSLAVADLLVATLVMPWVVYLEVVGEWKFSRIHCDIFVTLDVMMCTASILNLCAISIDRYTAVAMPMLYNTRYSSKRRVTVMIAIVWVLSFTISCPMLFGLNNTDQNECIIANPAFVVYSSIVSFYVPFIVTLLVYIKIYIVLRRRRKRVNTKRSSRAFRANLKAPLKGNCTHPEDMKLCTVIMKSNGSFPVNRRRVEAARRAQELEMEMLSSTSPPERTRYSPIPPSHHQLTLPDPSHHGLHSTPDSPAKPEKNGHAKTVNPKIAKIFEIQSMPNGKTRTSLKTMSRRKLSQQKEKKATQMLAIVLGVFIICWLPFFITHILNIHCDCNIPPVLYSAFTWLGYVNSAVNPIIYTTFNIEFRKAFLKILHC

SMILES	Ki [1]	Ki [2]	Ki [3]	Ki [4]
CCCN1CCCC(c2ccc(C)c(C)c2)C1 (stereo unspecified)	8.2 µM	4.99 µM	0.0191 µM	102 µM
CCCN1CCCC(c2c(C)cccc2C)C1 (stereo unspecified)	23 µM	–	0.156 µM	98 µM
CCCN1CCCC(c2cc(C)cc(C)c2)C1 (stereo unspecified)	9.3 µM	1.3 µM	0.052 µM	60 µM
CCCN1CCC[C@@H](c2cccc(O)c2)C1 [PRECLAMOL]	12 µM	2.1 µM	0.53 µM	–
Cc1cccc(C2CCCNC2)c1C (stereo unspecified)	16 µM	–	0.043 µM	–
Cc1cc(C)cc(C2CCCNC2)c1 (stereo unspecified)	24 µM	–	0.24 µM	–
CCCN1CCCC(c2cccc(C)c2C)C1 (stereo unspecified)	7.8 µM	4.9 µM	0.0753 µM	60 µM
CCCN1CCCC(c2ccc(C)cc2C)C1 (stereo unspecified)	17 µM	–	0.72 µM	100 µM
NCCc1ccc(O)c(O)c1 [DOPAMINE]	–	–	–	4.3 µM
CCCN1CCCC(c2cc(C)ccc2C)C1 (stereo unspecified)	25 µM	–	0.54 µM	112 µM
Cc1ccc(C2CCCNC2)cc1C (stereo unspecified)	19 µM	–	0.14 µM	–

From ChEMBL document CHEMBL1131416 (J Med Chem, 1998)
